Source: patent publication US9393255B2, “Pharmaceutical compositions of cytidine analogs and methods of use thereof” (Celgene Corporation, priority 2011, dated 2016)
Values after ≈ are worked out from the molar mass of the structure shown. “Also recorded” adds a separate entry of the source.

Experiments:
pKa of 5-azacytidine = format: physicochemical; conditions: 25° C.
Description: (§1) Generally at lower temperature a smaller amount of 5-azacytidine may be dissolved in water.

[1] = aqueous solubility of 5-azacytidine; format: physicochemical; conditions: water
Description: In one embodiment, the reconstituted liquid dosage form is allowed to warm to room temperature (e.g., within a period of less than about 30 minutes) before parenteral use. […] In some embodiments, when the dosage form is at room temperature, about one-half of 5-azacytidine is dissolved, with about the other half present as solid in the suspension.
as §1

[2] = aqueous degradation kinetics of 5-azacytidine (solution and suspension); format: physicochemical
Description: The aqueous degradation kinetics of 5-azacytidine was evaluated. […] At lower temperatures, the degradation of 5-azacytidine is slower.

[3] = human pharmacokinetics of 5-azacytidine after SC or IV dosing; format: in vivo
[4] = stability of 5-azacytidine suspension reconstituted with cold Water for Injection, stored refrigerated or frozen (Example E); format: physicochemical
Description: The reconstituted suspension of 5-azacytidine was then stored either refrigerated or frozen.
In one experiment, the suspension was stored at a temperature of between about 2° C. and about 8° C. for up to 72 hours, and then warmed to about 25° C. over a period of about 30 minutes. In another experiment, the suspension was stored at a temperature of about −20° C. for up to 7 days, and then thawed and stored refrigerated for up to 48 hours, and then warmed to about 25° C. over a period of about 30 minutes.
The dry lyophilized powder was stored in the vials under normal conditions for about 48 months prior to use in this experiment.
The contents of the vials were reconstituted with cold Water for Injection. Prior to reconstitution, the Water for Injection was stored refrigerated for at least 24 hours. All vials were reconstituted into an opaque, white suspension within 20 seconds.
The vials were stored at conditions described above for a certain time. The contents of all vials were re-dispersed into an opaque, white suspension within 20 seconds of shaking after each storage conditions or time points described in this example.

[5] = cold water reconstitution of Vidaza with refrigerated storage: potency, redispersibility time, appearance (Example F); format: physicochemical; conditions: for stability time (not more than 3% loss of potency from Time 0): cold WFI (2-8° C.) reconstitution, refrigerated (2-8° C.) storage
Description: Sterility testing was performed at the end of the study. Stability of azacitidine was defined in this study as not more than 3% loss of potency from Time 0 (e.g., baseline).
Analytical methods and stability testing: The potency of azacitidine was determined by quantitating the sample against an external standard utilizing reverse phase chromatography with UV detection, in accordance with ICH guidelines. The determination of suspension appearance for redispersibility time was performed visually, in accordance with ICH guidelines.
Stability testing of azacitidine was performed by utilizing validated regulatory accepted analytical methods in accordance with ICH guidelines. These studies were conducted at conditions which encompass long-term, intermediate and accelerated storage of the drug product over a period of time.
Materials and methods: Two lots of sterile commercial scale azacitidine drug product, each nearing the end of their expiry period of 48 months, were used for the study. Each lot of drug product was prepared as a homogeneous mixture of lyophilized powder and placed in labeled vials in preparation for reconstitution. Vials from each lot of azacitidine drug product were then reconstituted with 4 mL of refrigerated (2-8° C.) WFI and immediately placed in refrigerated storage (2-8° C.). After refrigerated storage for 16, 18, 20, and 22 hours, reconstituted vials of azacitidine were removed from refrigeration and placed at 25° C. for 30 minutes. Equilibration time to 25° C. for refrigerated azacitidine suspension was determined to be 30 minutes. […] Stability of azacitidine was defined in this study as not more than 3% loss of potency from Time 0 (e.g., baseline). Sterility of the refrigerated drug product was assessed for reconstituted vials stored at 2-8° C. at end of study.

[6] = cold water reconstitution of Vidaza with frozen storage, Study 2: HPLC assay, redispersion time, appearance (Example G); format: physicochemical; conditions: reconstituted with refrigerated WFI, stored frozen (−20° C.)
Description: The study was performed in a similar fashion as Example F, and the cold water reconstituted suspension was then stored under frozen conditions. […] A study to determine the thawing time of the frozen suspensions at 25° C. was also conducted.
Testing was performed using two lots of homogenized drug product. […] The second study analyzed the reconstituted drug product after storage of reconstituted drug product at −20° C. utilizing hold times of 24, 48, and 72 hours followed by a post hold time of 45 minutes at 25° C. to allow for thawing as determined in the first study.
Analytical Methods: The amount of azacitidine and related impurities contained in azacitidine samples was determined utilizing High Performance Liquid Chromatography (HPLC). Two methods were used to complete this testing. […] Reconstitution and redispersibility times were determined in a manner similar to that as described in Example F. Appearance of the suspension was determined visually. […]
An appropriate number of homogenized azacitidine drug product vials were reconstituted with refrigerated WFI as described above, and placed in a freezer (−20° C.). […] After thawing, the contents of the vials were analyzed, for example, by HPLC. […] In addition to the frozen vials, a set of drug product vials were reconstituted and diluted, and immediately analyzed for use as T0 (baseline). […]

MDS, AML, CML, ALL, NHL = conditions: treatment of MDS; cited from earlier work
higher-risk MDS = conditions: Phase III, subcutaneous, subjects with higher-risk MDS; cited from earlier work
leukemic mouse model = assay: activity and toxicity of degradation products in a leukemic mouse model; format: in vivo

Nc1ncn([C@@H]2O[C@H](CO)[C@@H](O)[C@H]2O)c(=O)n1 [5-azacytidine, 4-amino-1-β-D-ribofuranosyl-1,3,5-triazin-2(1H)-one]
pKa (pKa of 5-azacytidine; higher of the two pKa values): ~10.2
pKa (pKa of 5-azacytidine; lower of the two pKa values): ~2.8
solubility ([1]; 5° C.): ~6.4 mg/mL (≈ 26.2 mM)
solubility ([1]; 25° C.): ~14 mg/mL (≈ 57.3 mM)
Degradation Rate ([2]; Solution, 2° C. to 8° C.): 0.7% per hour
Degradation Rate ([2]; Solution, 25° C.): 2.8% per hour
Degradation Rate ([2]; Suspension, 2° C. to 8° C.): 0.1% per hour
Degradation Rate ([2]; Suspension, 25° C.): 2.5% per hour
Cmax for SC dosing ([3]; SC): rapid
bioavailability ([3]; in vivo, subcutaneous, SC vs IV, read-out: relative bioavailability of SC dose (relative to IV dose)): ~90%
degradation on frozen storage ([4]; reconstituted with cold Water for Injection, stored frozen, for at least 7 days): no significant degradation
Degradation Rate ([4]; suspension reconstituted with cold Water for Injection, stored refrigerated): about 0.12 % w/w per hour
redispersion time ([5]; 16, 18, 20 and 22 hr refrigerated storage and 30 minutes equilibration to 25° C.): 0.3 min
appearance of suspension ([5]; 16, 18, 20 and 22 hr refrigerated storage and 30 minutes equilibration to 25° C., listed as Azacitidine): fine white particles in suspension
appearance of suspension ([5]; 16, 18, 20 and 22 hr refrigerated storage and 30 minutes equilibration to 25° C., listed as azacitidine): fine white particles in suspension and the absence of clumps
stability time (not more than 3% loss of potency from Time 0) ([5]; listed as Azacitidine): about 22 hours
stability time (not more than 3% loss of potency from Time 0) ([5]; listed as azacitidine): 22 h
prolongation of stability time versus usual reconstitution ([5]; cold WFI reconstitution with refrigerated storage, 8 to 22 hours, listed as azacitidine): about a threefold prolongation; also recorded: nearly threefold
maximum loss of potency ([5]; cold water (2-8° C.) reconstitution, refrigerated storage baseline to 22 hr, 30 minutes equilibration to 25° C., each of the two lots): 2.7%
stability time under frozen storage [6]: up to 72 hours
anti-tumor activity in clinical trials (MDS, AML, CML, ALL, NHL): significant anti-tumor activity
survival and time to AML transformation or death (higher-risk MDS): significantly prolonged survival and time to AML transformation or death

NC(N)=NC(=O)N[C@@H]1O[C@H](CO)[C@@H](O)[C@H]1O [secondary degradation product, guanylribosylurea]
activity (leukemic mouse model; dosed at 1440 mg/m^2): neither activity nor toxicity
toxicity (leukemic mouse model; dosed at 1440 mg/m^2): neither activity nor toxicity

N=C(NC=O)NC(=O)N[C@@H]1O[C@H](CO)[C@@H](O)[C@H]1O [primary degradation product, N-formylguanyribosylurea]
activity relative to 5-azacytidine (leukemic mouse model; dosed at about 240 mg/m^2): about 25%
toxicity relative to 5-azacytidine (leukemic mouse model; dosed at about 240 mg/m^2): about 25%

Nc1ncn([C@H]2C[C@H](O)[C@@H](CO)O2)c(=O)n1 [5-aza-2′-deoxycytidine]
anti-tumor activity in clinical trials (MDS, AML, CML, ALL, NHL): significant anti-tumor activity
